Measured values: patent US20250066323A1, “INHIBITORS OF HUMAN RESPIRATORY SYNCYTIAL VIRUS AND METAPNEUMOVIRUS” (priority 2023, published 2025)
Read-outs that look alike come from different tables or passages of the source.

Assays:
RSV-A2-GFP = RSV-A2-GFP viral replication assay; format: cell-based, Human Respiratory Syncytial Virus
From the text: GFP sequence was derived from pJTI™ R4 Dest CMV N-EmGFP pA Vector (Invitrogen) and was cloned into the intergenic sequence between wild-type RSV-A2 P and M genes using standard recombineering techniques. Recombinant RSV-A2-GFP was propagated in Hep2 cells (human cells contains HeLa marker chromosomes and were derived via HeLa contamination, ATCC CCL-23) with infection Multiplicity of Infection (MOI) of 0.1. Virus was harvested 3 days after infection by collecting all culture material and freeze-thaw the viral culture in liquid nitrogen for at least 5 times. To generating virus working stocks, thaw frozen samples in 37° C. water bath then centrifuge at 218 g for 15 min at 4° C. Add 1/10 of 10×SPG (Biological Industries 06-3061-01-5A), mix, aliquot supernatant, and quick-freeze in liquid nitrogen then transfer to −80° C. freezer for storage. Virus titer was determined by automated plaque assay in HEp-2 cells following methods described previously (Wen Z. et al.; J Virol Methods. 2019 January; 263:88-95).
Calu-1 cells (human lung epidermoid carcinoma, ATCC HTB-54) assay ready freezedown (ARF generation described separately) were used in assays. Compound plates were prepared by dispensing compounds dissolved in DMSO into wells of 384 well coming 3985 polystyrene flat clear bottom optical imaging microplates (202.5 nL/well) using an ECHO acoustic dispenser. Each compound was tested in a 10-point serial 3-fold dilution (typical final concentrations: 403 nM-0.02 nM and 40.3 nM-0.002 nM). […] To set up the assay, thaw ARF vial(s) in 37° C. water bath until small ice crystal remain and resuspend into assay media (DMEM containing 2% FBS, 100 U/ml Penicillin-Streptomycin). Count cells using default parameters on ViCell and dilute to 20,000 cells per ml in assay media. Add RSV GFP to cells at 24,000 pfu/ml (MOI=1.2). Mix by gentle inversion. 10 μl/well of 100% DMSO was dispensed to CellTiter-Glo (CTG) assay Max_E controls wells. Dispense cells at 50 μl/well using Bravo and 50 μl filtered tips into compound plates. Cover plates with MicroClime lids loaded with 7.5 ml of assay media to minimize evaporation. Incubate at 37 degrees C. and 5% CO2 for 96 hrs. Following incubation, distinct, GFP-expressing cells are counted using an Acumen imaging system with appropriate settings. A same-well CTG assay is performed by adding 10 μl/well reconstituted CellTiter-Glo reagent (Promega G7573) and reading plates on PerkinElmer Envision according to manufacturer's instructions. Raw data were loaded and analyzed in ActivityBase. Antiviral IC50 and cytotoxicity CC50 values were determined using a 4 parameter logistic fit based on the Levenberg-Marquardt algorithm. Model: 205-4 Parameter Logistic.
Calu-1 cells were purchased from ATCC (Cat #HTB-54) and are expanded in growth media (DMEM containing 10% FBS, 100 U/ml Penicillin-Streptomycin). To make ARF, remove and discard cell culture media, briefly rinse the cell layer with PBS to remove all traces of serum. Add 2.5 ml of TrypLE Express solution and incubate until cells dislodge, then add growth media and resuspend the cells by gentle pipetting. Count cells for concentration and determine viability using a ViCell. Centrifuge at RT, 300 g for 5 min to pellet cells. Gently aspirate supernatant, flick pellet to loosen cells. Resuspend cells in an appropriate volume of freezing medium (DMEM containing 10% DMSO, 10% FBS, 100 U/ml Penicillin-Streptomycin) to achieve 5×10^6/ml. Transfer 1 ml of cell suspension to freezing vials. Put vials to CoolCell cryopreservation container and place CoolCell container upright in a −80° C. freezer overnight before transferring vials to liquid nitrogen vapor for storage.

hMPV-GFP = hMPV-GFP viral replication assay; format: cell-based, human metapneumovirus; conditions: read-out: hMPV EC50
Method: GFP expressing rgHMPV #3 p3 was generated in Dr. Buchholz's lab (Biacchesi S. et al., J Virol. 2007 June; 81(11): 6057-6067.) and propagated in VERO cells (kidney tissue derived from a normal, adult African green monkey. ATCC Cat #CCL-81) with infection Multiplicity of Infection (MOI) of 0.1. Virus was harvested 4 days after infection by collecting all culture material and freeze-thaw the viral culture in liquid nitrogen twice. To generating virus working stocks, thaw frozen samples in 37° C. water bath then centrifuge at 218 g for 15 min at 4° C. Add 1/10 of 10×SPG (Biological Industries 06-3061-01-5A), mix, aliquot supernatant, and quick-freeze in liquid nitrogen then transfer to −80° C. freezer for storage. Virus titer was determined by performing titration test in 96-well plates and calculate approximate virus titer using GFP event/well data.
Compound plates were prepared by dispensing compounds dissolved in DMSO into wells of 384 well coming 3985 polystyrene flat clear bottom optical imaging microplates (202.5 nL/well) using an ECHO acoustic dispenser. Each compound was tested in a 10-point serial 3-fold dilution (typical final concentrations: 40,300 nM-2 nM). […] Continuous culture of VERO cells were maintained in complete culture media (OptiMEM supplemented with 2 mM GlutaMAX™ and 100 U/ml Penicillin-Streptomycin). To set up the assay, trypsinize VERO cells with 0.25% Trypsin-EDTA until cells dislodge, then re-suspend cells with 1 mL FBS. Spin down cells at 300 g for 5 min and wash cells twice in culture media, then count cells using default parameters on ViCell. Cells were then diluted to 100,000 cells/ml (5,000 cells/50 μl) in complete culture media+TrypLE Select (80 μl/ml). Add hMPV-GFP virus to cells at 125,000 pfu/ml (MOI=1.25). Mix by gentle inversion. 10 μl/well of 100% DMSO was dispensed to CellTiter-Glo (CTG) assay Max_E controls wells. Dispense cells at 50 μl/well using Bravo and 50 μl filtered tips into compound plates. Cover plates with MicroClime lids loaded with 7.5 ml of assay media to minimize evaporation. Lightly shake plate for 10 minutes at room temperature then incubate at 37 degrees C. and 5% CO2 for 48 hrs. Following incubation, distinct, GFP-expressing cells are counted using an Acumen imaging system with appropriate settings. A same-well CTG assay is performed by adding 10 μl/well reconstituted CellTiter-Glo reagent (Promega G7573) and reading plates on PerkinElmer Envision according to manufacturer's instructions. Raw data were loaded and analyzed in ActivityBase. Antiviral IC50 and cytotoxicity CC50 values were determined using a 4 parameter logistic fit based on the Levenberg-Marquardt algorithm. Model: 205-4 Parameter Logistic.

[1] = read-out: RSV EC50, Calu-1 cells, RSV-A2-GFP MOI=1.2, 96 hrs, GFP-expressing cells counted
[2] = human metapneumovirus, Vero, 48 h
[3] = VERO cells, hMPV-GFP MOI=1.25, 48 hrs, GFP-expressing cells counted
[4] = human respiratory syncytial virus, Calu-1, 96 h, read-out: RSV EC50, Calu-1 cells, RSV-A2-GFP MOI=1.2, 96 hrs, GFP-expressing cells counted

CCOc1cc(C(=O)NCC(C)(O)c2cc(C(C)(C)N)cc(-c3ccc(F)cc3)n2)n(C)n1 (single isomer, unassigned) [Example 01-A]
EC50 (RSV-A2-GFP; [1]): > 100 nM
EC50 (hMPV-GFP; [2]): > 100 nM

CCOc1cc(C(=O)NCC(C)(O)c2cc(C(C)(C)N)cc(-c3ccc(F)cc3)n2)n(C)n1 (single isomer, unassigned) [Example 01-B]
EC50 (RSV-A2-GFP; [1]): < 10 nM
EC50 (hMPV-GFP; [3]): > 100 nM

Cn1nc(-n2cccn2)cc1C(=O)NCC(C)(O)c1cc(C(C)(C)N)cc(-c2ccc(F)cc2)n1 (single isomer, unassigned) [Example 02-B]
EC50 (RSV-A2-GFP; [4]): < 10 nM
EC50 (hMPV-GFP; [2]): > 100 nM

Cn1nc(-c2ccon2)cc1C(=O)NCC(C)(O)c1cc(C(C)(C)N)cc(-c2ccc(F)cc2)n1 (single isomer, unassigned) [Example 03-B]
EC50 (RSV-A2-GFP; [4]): < 10 nM
EC50 (hMPV-GFP; [2]): > 100 nM

Cn1nc(-c2ncco2)cc1C(=O)NCC(C)(O)c1cc(C(C)(C)N)cc(-c2ccc(F)cc2)n1 (single isomer, unassigned) [Example 04-B]
EC50 (RSV-A2-GFP; [4]): < 10 nM
EC50 (hMPV-GFP; [2]): > 100 nM

Cn1nc(-c2cscn2)cc1C(=O)NCC(C)(O)c1cc(C(C)(C)N)cc(-c2ccc(F)cc2)n1 (single isomer, unassigned) [Example 05-B]
EC50 (RSV-A2-GFP; [4]): < 10 nM
EC50 (hMPV-GFP; [2]): > 100 nM

CCn1nc(-c2cscn2)cc1C(=O)NCC(C)(O)c1cc(C(C)(C)N)cc(-c2ccc(F)cc2)n1 (single isomer, unassigned) [Example 06-B]
EC50 (RSV-A2-GFP; [4]): < 10 nM
EC50 (hMPV-GFP; [2]): > 100 nM

Cc1nc(-c2cscn2)sc1C(=O)NCC(C)(O)c1cc(C(C)(C)N)cc(-c2ccc(F)cc2)n1 (single isomer, unassigned) [Example 07-B]
EC50 (RSV-A2-GFP; [4]): < 10 nM
EC50 (hMPV-GFP; [2]): > 100 nM

CC(C)(N)c1cc(-c2ccc(F)cc2)nc(C(C)(O)CNC(=O)c2sc(-c3cscn3)nc2C2CC2)c1 (single isomer, unassigned) [Example 08-B]
EC50 (RSV-A2-GFP; [4]): < 10 nM
EC50 (hMPV-GFP; [2]): > 100 nM

CC(C)(N)c1cc(-c2ccc(F)cc2)nc(C(C)(O)CNC(=O)c2cc(-c3cscn3)ns2)c1 (single isomer, unassigned) [Example 09-B]
EC50 (RSV-A2-GFP; [4]): < 10 nM
EC50 (hMPV-GFP; [2]): > 100 nM

CC(C)(N)c1cc(-c2ccc(F)cc2)nc(C(C)(O)CNC(=O)c2cc(-c3ncccn3)ns2)c1 (single isomer, unassigned) [Example 10-B]
EC50 (RSV-A2-GFP; [4]): < 10 nM
EC50 (hMPV-GFP; [2]): > 100 nM

COc1nn(-c2ncccn2)cc1C(=O)NCC(C)(O)c1cc(C(C)(C)N)cc(-c2ccc(F)cc2)n1 (single isomer, unassigned) [Example 11-B]
EC50 (RSV-A2-GFP; [4]): < 10 nM
EC50 (hMPV-GFP; [2]): > 100 nM

Cn1nc(-c2cscn2)cc1C(=O)NCC(C)(O)c1cc(C(C)(C)N)cc(-n2ccc3c(F)cccc32)n1 (single isomer, unassigned) [Example 12-B]
EC50 (RSV-A2-GFP; [4]): < 10 nM
EC50 (hMPV-GFP; [2]): > 100 nM

Cn1nc(-c2cscn2)cc1C(=O)NCC(C)(O)c1cc(C(C)(C)N)cc(-c2ccc(Cl)cc2)n1 (single isomer, unassigned) [Example 13-B]
EC50 (RSV-A2-GFP; [4]): < 10 nM
EC50 (hMPV-GFP; [2]): > 100 nM

Cc1ccc(-c2cc(C(C)(C)N)cc(C(C)(O)CNC(=O)c3cc(-c4cscn4)nn3C)n2)cc1 (single isomer, unassigned) [Example 14-B]
EC50 (RSV-A2-GFP; [4]): < 10 nM
EC50 (hMPV-GFP; [2]): > 100 nM

Cn1nc(-c2cscn2)cc1C(=O)NCC(C)(O)c1cc(C(C)(C)N)cc(-c2ccc(F)c(F)c2)n1 (single isomer, unassigned) [Example 15-B]
EC50 (RSV-A2-GFP; [4]): < 10 nM
EC50 (hMPV-GFP; [2]): > 100 nM

Cn1nc(-c2cscn2)cc1C(=O)NCC(C)(O)c1cc(C(C)(C)N)cc(-c2ccc(F)c(Cl)c2)n1 (single isomer, unassigned) [Example 16-B]
EC50 (RSV-A2-GFP; [4]): < 10 nM
EC50 (hMPV-GFP; [2]): > 100 nM

Cn1nc(-c2cscn2)cc1C(=O)NCC(C)(O)c1cc(C(C)(C)N)cc(-c2ccc(Cl)c(F)c2)n1 (single isomer, unassigned) [Example 17-B]
EC50 (RSV-A2-GFP; [4]): < 10 nM
EC50 (hMPV-GFP; [2]): > 100 nM

Cn1nc(-c2cscn2)cc1C(=O)NCC(C)(O)c1cc(C(C)(C)N)cc(-c2ccc(F)cc2F)n1 (single isomer, unassigned) [Example 18-B]
EC50 (RSV-A2-GFP; [4]): < 10 nM
EC50 (hMPV-GFP; [2]): > 100 nM

Cc1cc(F)ccc1-c1cc(C(C)(C)N)cc(C(C)(O)CNC(=O)c2cc(-c3cscn3)nn2C)n1 (single isomer, unassigned) [Example 19-B]
EC50 (RSV-A2-GFP; [4]): < 10 nM
EC50 (hMPV-GFP; [2]): > 100 nM

Cn1nc(-c2cscn2)cc1C(=O)NCC(C)(O)c1cc(C(C)(C)N)cc(-c2ccc(F)c(F)c2F)n1 (single isomer, unassigned) [Example 20-B]
EC50 (RSV-A2-GFP; [4]): < 10 nM
EC50 (hMPV-GFP; [2]): > 100 nM

CCC(O)(CNC(=O)c1cc(-c2cscn2)nn1C)c1cc(C(C)(C)N)cc(-c2ccc(F)cc2)n1 (single isomer, unassigned) [Example 21-A]
EC50 (RSV-A2-GFP; [4]): < 10 nM
EC50 (hMPV-GFP; [2]): > 100 nM

CCC(O)(CNC(=O)c1cc(-c2cscn2)nn1C)c1cc(C(C)(C)N)cc(-c2ccc(F)cc2)n1 (single isomer, unassigned) [Example 21-B]
EC50 (RSV-A2-GFP; [1]): 10 to 100 nM
EC50 (hMPV-GFP; [3]): > 100 nM

Cc1nc(-c2ncccn2)sc1C(=O)NCC(O)(c1cc(C(C)(C)N)cc(-c2ccc(F)cc2)n1)C1CC1 (single isomer, unassigned) [Example 22-A]
EC50 (RSV-A2-GFP; [1]): > 100 nM
EC50 (hMPV-GFP; [2]): > 100 nM

Cc1nc(-c2ncccn2)sc1C(=O)NCC(O)(c1cc(C(C)(C)N)cc(-c2ccc(F)cc2)n1)C1CC1 (single isomer, unassigned) [Example 22-B]
EC50 (RSV-A2-GFP; [1]): < 10 nM
EC50 (hMPV-GFP; [3]): > 100 nM

Cn1nc(-c2cscn2)cc1C(=O)NCC(O)(c1cc(C(C)(C)N)cc(-c2ccc(F)cc2)n1)C1CC1 (single isomer, unassigned) [Example 23-B]
EC50 (RSV-A2-GFP; [4]): < 10 nM
EC50 (hMPV-GFP; [2]): > 100 nM
